What was measured:
Histamine H1 receptor [1] = molecular target: T1, Histamine H1 receptor (Homo sapiens, UniProt P35367); type: functional, cell-based
Histamine H1 receptor [2] = molecular target: T1, Histamine H1 receptor; type: functional, cell-based; remark: listed apart in the source
[3] = molecular target: Beta-1 adrenergic receptor (Homo sapiens, UniProt P08588); type: functional, cell-based
[4] = molecular target: T2, Peroxisome proliferator-activated receptor alpha (Homo sapiens, UniProt Q07869); type: functional
T2 sequence (Q07869 whole entry): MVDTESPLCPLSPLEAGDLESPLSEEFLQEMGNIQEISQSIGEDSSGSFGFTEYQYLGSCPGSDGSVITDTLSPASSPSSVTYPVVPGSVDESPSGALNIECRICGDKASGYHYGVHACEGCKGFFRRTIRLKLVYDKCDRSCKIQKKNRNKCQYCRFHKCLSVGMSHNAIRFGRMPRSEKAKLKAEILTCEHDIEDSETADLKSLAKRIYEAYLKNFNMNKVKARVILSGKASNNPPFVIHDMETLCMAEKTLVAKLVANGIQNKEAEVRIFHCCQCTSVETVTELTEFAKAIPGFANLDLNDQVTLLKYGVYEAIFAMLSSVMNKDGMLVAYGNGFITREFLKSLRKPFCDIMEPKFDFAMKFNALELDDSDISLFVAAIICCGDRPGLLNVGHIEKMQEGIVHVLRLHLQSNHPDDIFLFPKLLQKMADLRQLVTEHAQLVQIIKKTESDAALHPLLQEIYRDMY

[5] = molecular target: Voltage-dependent L-type calcium channel subunit alpha-1C (Homo sapiens, UniProt Q13936); type: functional, cell-based
Chain of Voltage-dependent L-type calcium channel subunit alpha-1C (Q13936 whole entry): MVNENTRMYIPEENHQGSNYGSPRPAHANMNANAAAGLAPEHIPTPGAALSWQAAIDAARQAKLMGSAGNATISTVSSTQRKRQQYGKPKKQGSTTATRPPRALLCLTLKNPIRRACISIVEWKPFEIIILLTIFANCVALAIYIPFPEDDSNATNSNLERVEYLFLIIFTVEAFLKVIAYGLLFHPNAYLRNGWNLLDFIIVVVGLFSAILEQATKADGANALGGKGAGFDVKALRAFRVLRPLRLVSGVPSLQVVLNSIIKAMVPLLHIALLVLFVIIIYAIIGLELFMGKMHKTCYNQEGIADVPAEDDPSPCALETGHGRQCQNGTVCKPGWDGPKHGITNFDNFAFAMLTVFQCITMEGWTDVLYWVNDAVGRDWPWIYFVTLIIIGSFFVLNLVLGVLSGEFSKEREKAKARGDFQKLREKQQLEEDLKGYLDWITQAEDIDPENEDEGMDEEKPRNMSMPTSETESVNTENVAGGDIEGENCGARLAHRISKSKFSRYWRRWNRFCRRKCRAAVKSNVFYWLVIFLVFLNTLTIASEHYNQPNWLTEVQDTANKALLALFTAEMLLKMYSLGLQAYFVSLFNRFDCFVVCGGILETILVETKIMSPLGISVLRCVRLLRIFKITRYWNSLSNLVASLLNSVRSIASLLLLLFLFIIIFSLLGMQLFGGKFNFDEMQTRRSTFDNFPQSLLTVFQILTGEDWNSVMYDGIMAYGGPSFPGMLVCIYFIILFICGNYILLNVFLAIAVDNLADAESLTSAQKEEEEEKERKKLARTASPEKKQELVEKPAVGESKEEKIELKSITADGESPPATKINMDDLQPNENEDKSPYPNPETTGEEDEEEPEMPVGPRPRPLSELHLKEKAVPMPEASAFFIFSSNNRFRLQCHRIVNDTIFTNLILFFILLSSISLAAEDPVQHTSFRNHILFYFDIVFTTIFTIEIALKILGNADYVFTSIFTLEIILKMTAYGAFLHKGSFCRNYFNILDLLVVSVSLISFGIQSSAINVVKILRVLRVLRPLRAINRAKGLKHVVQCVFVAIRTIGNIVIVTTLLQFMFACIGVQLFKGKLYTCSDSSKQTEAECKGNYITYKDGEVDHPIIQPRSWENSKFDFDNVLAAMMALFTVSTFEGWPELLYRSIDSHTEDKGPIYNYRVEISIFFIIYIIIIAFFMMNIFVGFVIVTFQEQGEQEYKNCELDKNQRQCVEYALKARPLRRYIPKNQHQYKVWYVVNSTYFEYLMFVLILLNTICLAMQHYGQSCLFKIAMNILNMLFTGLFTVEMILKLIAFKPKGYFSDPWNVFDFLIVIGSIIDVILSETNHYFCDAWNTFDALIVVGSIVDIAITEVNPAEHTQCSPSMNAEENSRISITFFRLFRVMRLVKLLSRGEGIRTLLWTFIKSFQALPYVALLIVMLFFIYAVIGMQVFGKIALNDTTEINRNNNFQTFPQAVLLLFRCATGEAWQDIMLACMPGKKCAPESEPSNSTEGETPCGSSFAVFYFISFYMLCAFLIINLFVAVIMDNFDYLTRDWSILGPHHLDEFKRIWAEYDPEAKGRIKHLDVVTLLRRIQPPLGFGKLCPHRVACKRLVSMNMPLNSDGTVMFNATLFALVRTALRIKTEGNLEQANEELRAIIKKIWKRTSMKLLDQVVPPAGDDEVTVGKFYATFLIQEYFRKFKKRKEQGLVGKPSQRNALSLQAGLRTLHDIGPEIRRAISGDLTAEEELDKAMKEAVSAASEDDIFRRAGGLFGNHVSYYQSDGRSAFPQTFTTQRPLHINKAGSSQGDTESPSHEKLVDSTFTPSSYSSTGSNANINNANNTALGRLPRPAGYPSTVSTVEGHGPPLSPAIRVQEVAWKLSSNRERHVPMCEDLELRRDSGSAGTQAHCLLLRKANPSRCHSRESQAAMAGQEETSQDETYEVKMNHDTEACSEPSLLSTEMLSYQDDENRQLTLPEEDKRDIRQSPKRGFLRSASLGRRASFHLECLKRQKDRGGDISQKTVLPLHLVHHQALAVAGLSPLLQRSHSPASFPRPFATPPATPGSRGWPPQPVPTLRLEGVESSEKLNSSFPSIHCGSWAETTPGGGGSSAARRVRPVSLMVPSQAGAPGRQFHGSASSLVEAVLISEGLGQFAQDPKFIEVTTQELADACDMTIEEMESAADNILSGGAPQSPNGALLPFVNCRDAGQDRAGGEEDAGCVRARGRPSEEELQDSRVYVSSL

[6] = molecular target: 5-hydroxytryptamine receptor 2A (Homo sapiens, UniProt P28223)
Chain of 5-hydroxytryptamine receptor 2A (P28223 whole entry): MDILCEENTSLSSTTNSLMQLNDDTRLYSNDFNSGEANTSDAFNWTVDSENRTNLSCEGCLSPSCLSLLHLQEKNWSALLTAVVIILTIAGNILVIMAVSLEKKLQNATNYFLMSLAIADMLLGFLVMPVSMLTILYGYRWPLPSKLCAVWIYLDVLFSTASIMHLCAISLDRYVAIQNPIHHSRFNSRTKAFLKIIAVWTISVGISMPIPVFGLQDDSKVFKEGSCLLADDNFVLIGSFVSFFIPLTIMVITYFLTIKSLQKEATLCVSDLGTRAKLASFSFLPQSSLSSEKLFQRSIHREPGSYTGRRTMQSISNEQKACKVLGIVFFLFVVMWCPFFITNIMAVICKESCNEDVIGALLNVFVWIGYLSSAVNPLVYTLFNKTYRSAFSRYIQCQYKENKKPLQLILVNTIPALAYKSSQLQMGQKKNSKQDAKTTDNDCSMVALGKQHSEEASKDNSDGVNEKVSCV

[7] = molecular target: 5-hydroxytryptamine receptor 6 (Homo sapiens, UniProt P50406)
Chain of 5-hydroxytryptamine receptor 6 (P50406 whole entry): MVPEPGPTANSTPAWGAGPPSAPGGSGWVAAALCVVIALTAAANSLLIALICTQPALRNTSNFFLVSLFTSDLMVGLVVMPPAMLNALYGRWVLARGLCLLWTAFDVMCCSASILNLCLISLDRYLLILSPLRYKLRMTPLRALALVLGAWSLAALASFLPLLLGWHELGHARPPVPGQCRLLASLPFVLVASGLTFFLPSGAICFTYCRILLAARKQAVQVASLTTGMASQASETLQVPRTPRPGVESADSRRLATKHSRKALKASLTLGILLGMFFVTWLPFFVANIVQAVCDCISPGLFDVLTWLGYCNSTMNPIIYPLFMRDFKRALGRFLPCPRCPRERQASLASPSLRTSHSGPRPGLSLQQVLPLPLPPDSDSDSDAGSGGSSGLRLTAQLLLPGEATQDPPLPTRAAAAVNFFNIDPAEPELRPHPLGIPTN

[8] = molecular target: 5-hydroxytryptamine receptor 7 (Homo sapiens, UniProt P34969)
Chain of 5-hydroxytryptamine receptor 7 (P34969 whole entry): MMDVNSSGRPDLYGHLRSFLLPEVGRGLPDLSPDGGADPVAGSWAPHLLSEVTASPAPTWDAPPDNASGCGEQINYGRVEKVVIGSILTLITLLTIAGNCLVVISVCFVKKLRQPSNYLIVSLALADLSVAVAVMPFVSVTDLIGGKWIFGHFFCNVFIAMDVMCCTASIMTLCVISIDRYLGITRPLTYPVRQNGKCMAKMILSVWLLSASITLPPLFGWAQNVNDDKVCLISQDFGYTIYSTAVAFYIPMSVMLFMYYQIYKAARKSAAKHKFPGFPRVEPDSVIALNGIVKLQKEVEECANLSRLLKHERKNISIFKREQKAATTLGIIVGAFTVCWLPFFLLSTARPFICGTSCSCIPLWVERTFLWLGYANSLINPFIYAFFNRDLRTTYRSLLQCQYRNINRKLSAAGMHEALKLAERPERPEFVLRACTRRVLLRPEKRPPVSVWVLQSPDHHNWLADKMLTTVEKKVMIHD

[9] = molecular target: T3, Alpha-1A adrenergic receptor (Homo sapiens, UniProt P35348)
T3 sequence (P35348 whole entry): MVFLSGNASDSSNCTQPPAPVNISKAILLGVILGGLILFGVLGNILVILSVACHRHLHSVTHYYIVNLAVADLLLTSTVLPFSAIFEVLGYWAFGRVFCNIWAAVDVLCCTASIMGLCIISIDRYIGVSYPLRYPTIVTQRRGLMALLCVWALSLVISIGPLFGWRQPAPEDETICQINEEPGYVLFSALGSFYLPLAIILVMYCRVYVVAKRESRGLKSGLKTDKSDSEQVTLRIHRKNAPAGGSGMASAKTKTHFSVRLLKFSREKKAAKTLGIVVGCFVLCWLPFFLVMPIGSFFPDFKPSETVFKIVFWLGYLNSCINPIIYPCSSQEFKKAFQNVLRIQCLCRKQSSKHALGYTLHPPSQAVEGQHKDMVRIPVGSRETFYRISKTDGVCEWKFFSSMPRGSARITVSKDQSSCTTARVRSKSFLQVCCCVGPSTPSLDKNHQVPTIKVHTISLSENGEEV

D(1A) dopamine receptor = D(1A) dopamine receptor (Homo sapiens, UniProt P21728)
Chain of D(1A) dopamine receptor (P21728 whole entry): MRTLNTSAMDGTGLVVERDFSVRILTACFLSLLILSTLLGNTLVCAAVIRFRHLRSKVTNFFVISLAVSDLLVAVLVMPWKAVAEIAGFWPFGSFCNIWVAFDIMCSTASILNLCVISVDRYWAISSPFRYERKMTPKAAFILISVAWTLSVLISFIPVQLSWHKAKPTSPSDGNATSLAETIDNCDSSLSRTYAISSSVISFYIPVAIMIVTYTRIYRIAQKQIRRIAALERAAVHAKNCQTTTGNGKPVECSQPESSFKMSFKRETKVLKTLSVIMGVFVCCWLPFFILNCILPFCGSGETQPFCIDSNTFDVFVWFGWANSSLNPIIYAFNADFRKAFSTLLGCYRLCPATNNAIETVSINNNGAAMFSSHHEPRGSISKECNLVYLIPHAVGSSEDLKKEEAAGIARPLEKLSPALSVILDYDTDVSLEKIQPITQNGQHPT

[10] = molecular target: T4, Alpha-2A adrenergic receptor (Homo sapiens, UniProt P08913)
T4 sequence (P08913 whole entry): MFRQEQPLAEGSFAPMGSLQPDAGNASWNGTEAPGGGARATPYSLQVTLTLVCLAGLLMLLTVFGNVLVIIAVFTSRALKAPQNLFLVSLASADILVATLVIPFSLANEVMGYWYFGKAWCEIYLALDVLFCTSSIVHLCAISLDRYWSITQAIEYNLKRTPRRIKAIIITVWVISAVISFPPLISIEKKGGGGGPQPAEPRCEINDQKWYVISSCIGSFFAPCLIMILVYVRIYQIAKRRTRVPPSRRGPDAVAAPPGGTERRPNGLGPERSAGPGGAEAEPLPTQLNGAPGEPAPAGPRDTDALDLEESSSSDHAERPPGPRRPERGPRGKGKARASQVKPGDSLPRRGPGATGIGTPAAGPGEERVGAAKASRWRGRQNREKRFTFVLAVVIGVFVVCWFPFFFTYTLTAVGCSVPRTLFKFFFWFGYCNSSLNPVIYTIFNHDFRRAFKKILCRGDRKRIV

[11] = molecular target: Gamma-aminobutyric acid type B receptor subunit 1 (Homo sapiens, UniProt Q9UBS5)
Cannabinoid receptor 1 = Cannabinoid receptor 1 (Homo sapiens, UniProt P21554); type: functional
Chain of Cannabinoid receptor 1 (P21554 whole entry): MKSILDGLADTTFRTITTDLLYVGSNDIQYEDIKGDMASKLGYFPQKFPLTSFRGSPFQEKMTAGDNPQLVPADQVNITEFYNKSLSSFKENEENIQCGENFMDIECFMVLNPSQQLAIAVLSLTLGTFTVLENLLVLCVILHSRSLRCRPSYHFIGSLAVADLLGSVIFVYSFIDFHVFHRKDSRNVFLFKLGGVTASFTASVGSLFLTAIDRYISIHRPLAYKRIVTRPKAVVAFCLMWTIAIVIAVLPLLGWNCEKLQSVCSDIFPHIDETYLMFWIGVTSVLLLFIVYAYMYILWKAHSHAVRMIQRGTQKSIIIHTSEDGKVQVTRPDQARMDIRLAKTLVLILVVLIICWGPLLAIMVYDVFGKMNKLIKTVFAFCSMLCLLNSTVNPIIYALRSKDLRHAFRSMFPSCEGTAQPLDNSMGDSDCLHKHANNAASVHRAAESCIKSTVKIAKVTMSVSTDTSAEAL

[12] = molecular target: T5, Muscarinic acetylcholine receptor M2 (Homo sapiens, UniProt P08172)
T5 sequence (P08172 whole entry): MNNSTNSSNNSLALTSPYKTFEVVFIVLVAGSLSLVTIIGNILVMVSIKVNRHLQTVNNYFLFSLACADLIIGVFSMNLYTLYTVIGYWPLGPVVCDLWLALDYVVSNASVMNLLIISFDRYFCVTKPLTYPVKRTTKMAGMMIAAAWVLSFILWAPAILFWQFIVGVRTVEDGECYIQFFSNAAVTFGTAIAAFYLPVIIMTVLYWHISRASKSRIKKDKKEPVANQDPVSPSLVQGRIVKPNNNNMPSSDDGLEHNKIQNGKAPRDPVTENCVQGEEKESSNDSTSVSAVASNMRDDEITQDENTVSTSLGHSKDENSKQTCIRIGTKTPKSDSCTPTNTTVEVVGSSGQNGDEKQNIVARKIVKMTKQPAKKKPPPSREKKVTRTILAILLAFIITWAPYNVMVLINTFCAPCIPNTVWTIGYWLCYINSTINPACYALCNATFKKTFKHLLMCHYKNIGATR

[13] = molecular target: 5-hydroxytryptamine receptor 2B (Homo sapiens, UniProt P41595)
Further: assay procedure not described here.

T1 sequence (P35367 whole entry): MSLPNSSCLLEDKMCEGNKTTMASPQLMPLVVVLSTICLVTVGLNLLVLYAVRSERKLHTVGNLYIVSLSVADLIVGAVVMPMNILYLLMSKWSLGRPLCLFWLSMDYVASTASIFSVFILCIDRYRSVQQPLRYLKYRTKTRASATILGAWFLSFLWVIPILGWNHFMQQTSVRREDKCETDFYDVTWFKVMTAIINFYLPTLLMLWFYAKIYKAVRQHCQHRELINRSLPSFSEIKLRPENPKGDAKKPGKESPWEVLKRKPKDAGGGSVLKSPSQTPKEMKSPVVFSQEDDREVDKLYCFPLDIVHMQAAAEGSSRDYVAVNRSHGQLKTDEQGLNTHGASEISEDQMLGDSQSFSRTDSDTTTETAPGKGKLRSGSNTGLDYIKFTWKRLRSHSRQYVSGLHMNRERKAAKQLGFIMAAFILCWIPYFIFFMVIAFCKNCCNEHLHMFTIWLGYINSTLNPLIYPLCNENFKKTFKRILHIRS

C#CCN(C)Cc1ccccc1 [PARGYLINE]
AC50 (Histamine H1 receptor [1]): > 30 µM
AC50 (Histamine H1 receptor [2]): > 30 µM

CCN(CC)CCn1c(=O)c(Cc2ccc(OC)cc2)nc2ccccc21 [CAROVERINE]
AC50 [3]: > 30 µM

CC(C)/N=c1\cc2n(-c3ccc(Cl)cc3)c3ccccc3nc-2cc1Nc1ccc(Cl)cc1 [CLOFAZIMINE]
AC50 [4]: > 30 µM
AC50 [3]: > 30 µM

N#Cc1ccnc(N2C(=O)CC[C@H]2C(=O)N(c2cncc(F)c2)[C@H](C(=O)NC2CC(F)(F)C2)c2ccccc2Cl)c1 [IVOSIDENIB]
AC50 [5]: > 50 µM

CC(=O)SCC(Cc1ccccc1)C(=O)NCC(=O)OCc1ccccc1 (stereo not drawn) [RACECADOTRIL]
AC50 [4]: > 30 µM
AC50 [6]: > 10 µM

OCCOCCN1CCN(C(c2ccccc2)c2ccc(Cl)cc2)CC1 (stereo not drawn) [HYDROXYZINE]
AC50 [7]: 2.2 µM
AC50 [6]: 0.146 µM
AC50 (Histamine H1 receptor [1]): > 30 µM
AC50 (Histamine H1 receptor [2]): 0.45 µM
AC50 [8]: 6.8 µM
AC50 [9]: 0.546 µM

CN1CC2c3ccccc3Oc3ccc(Cl)cc3C2C1 (stereo not drawn) [ASENAPINE]
AC50 (D(1A) dopamine receptor): 0.01 µM
AC50 [10]: 0.0137 µM

CCOC(=O)[C@H](CCc1ccccc1)N[C@@H](C)C(=O)N1Cc2ccccc2C[C@H]1C(=O)O
AC50 [11]: > 10 µM
AC50 (Cannabinoid receptor 1): > 10 µM
AC50 [7]: > 10 µM
AC50 [8]: > 10 µM
AC50 [9]: > 10 µM

Cc1c(C)c2c(c(C)c1O)CCC(C)(COc1ccc(CC3SC(=O)NC3=O)cc1)O2 (stereo not drawn) [TROGLITAZONE]
AC50 [11]: > 10 µM

CC(=O)Oc1ccccc1C(=O)O [ASPIRIN]
AC50 [11]: > 10 µM
AC50 (D(1A) dopamine receptor): > 30 µM
AC50 [12]: > 30 µM
AC50 (Cannabinoid receptor 1): > 10 µM
AC50 [7]: > 10 µM
AC50 [10]: > 30 µM
AC50 [8]: > 10 µM
AC50 [9]: > 10 µM

C=CC1=C(C(=O)O)N2C(=O)[C@@H](NC(=O)/C(=N\O)c3csc(N)n3)[C@H]2SC1
AC50 [6]: > 10 µM

CCOC(=O)Nc1ccc(NCc2ccc(F)cc2)nc1N [FLUPIRTINE]
AC50 [3]: > 30 µM

CN(C)CCCC1(c2ccc(F)cc2)OCc2cc(C#N)ccc21 (stereo not drawn) [CITALOPRAM]
AC50 [13]: 0.3 µM

CCOc1ccccc1OCCN[C@H](C)Cc1ccc(OC)c(S(N)(=O)=O)c1 [TAMSULOSIN]
AC50 [6]: 14.4 µM
AC50 [10]: 0.79 µM

CN(C)CCC=C1c2ccccc2CCc2ccccc21 [AMITRIPTYLINE]
AC50 [5]: 32 µM

Nc1nnc(-c2cccc(Cl)c2Cl)c(N)n1 [LAMOTRIGINE]
AC50 [5]: > 50 µM
AC50 [9]: 11.1 µM

CC(=O)NC[C@H]1CN(c2ccc(N3CCOCC3)c(F)c2)C(=O)O1 [LINEZOLID]
AC50 [5]: > 50 µM

CC#CC(=O)N1CCC[C@H]1c1nc(-c2ccc(C(=O)Nc3ccccn3)cc2)c2c(N)nccn12 [ACALABRUTINIB]
AC50 [12]: > 30 µM

Cc1ccc(C(C)C)c(O)c1 [THYMOL]
AC50 [13]: 9.1 µM

NCC1(CC(=O)O)CCCCC1 [GABAPENTIN]
AC50 [11]: > 10 µM
AC50 (D(1A) dopamine receptor): > 30 µM
AC50 [12]: > 30 µM
AC50 (Cannabinoid receptor 1): > 10 µM
AC50 [7]: > 10 µM
AC50 [10]: > 30 µM
AC50 [8]: > 10 µM
AC50 [9]: > 10 µM

CN(C)CCc1c[nH]c2ccc(CS(=O)(=O)N3CCCC3)cc12 [ALMOTRIPTAN]
AC50 (Histamine H1 receptor [1]): > 30 µM
AC50 (Histamine H1 receptor [2]): > 30 µM

C[C@]12CCC(=O)C=C1CC[C@H]1[C@@H]3CC[C@](O)(C(=O)CO)[C@@]3(C)C[C@H](O)[C@@]12F [FLUDROCORTISONE]
AC50 [6]: > 10 µM

Cn1cnc2c(F)c(Nc3ccc(Br)cc3F)c(C(=O)NOCCO)cc21 [BINIMETINIB]
AC50 [5]: > 50 µM

Source: ChEMBL document CHEMBL5291721, “A preclinical secondary pharmacology resource illuminates target-adverse drug reaction associations of marketed drugs” (Nat Commun, 2023)
